Earlier results as cited in patent publication US9309247B2, “2-substituted imidazo[4,5-D]phenanthroline derivatives and their use in the treatment of cancer” (Aptose Biosciences Inc., priority 2013, dated 2016).

Key:
[1] = test system: Saccharmyces cerevisiae strains that have mutations in genes related to cell cycle control and DNA repair damage; settings: Stage0 testing, single concentration, six yeast strains; cited from earlier work
[2] = NCI screen; cited from earlier work

SMILES: Cc1ccccc1-c1nc2c3ccccc3c3ccccc3c2[nH]1 [NCI #338970]
- activity in the Yeast Anticancer Drug Screen [1]: active
- activity in the In Vivo Anticancer Drug Screen [2]: None of these three compounds showed any activity
